Data published in patent publication US20230049145A1, “GLYCOSYLATED POLYPEPTIDES” (FRESENIUS KABI DEUTSCHLAND GMBH, priority 2019, published 2023).

Columns and labels:
Sp2/0 cells [1] = test: Sialylation of human IgG1 antibody (golimumab) produced in Sp2/0 cells in perfusion culture supplemented with kifunensine; glycan analysis by HILIC; format: cell-based, Murine; details: IgG1 (golimumab) from Sp2/0 cells
Experimental: (§1) Murine Sp2/0 cells transfected with expression vectors encoding SEQ ID NOs: 1 and 2 (which correspond to the heavy and light chains respectively of the human anti-TNFα IgG1 monoclonal antibody, golimumab) were cultured in perfusion bioreactors for 30 days under standard operating parameters. To examine the effect of kifunensine on the sialylation levels of the resulting IgG1, the perfusion cultures were supplemented with either 3, 6, 9, or 12 μg/L kifunensine (corresponding to 13 nM, 26 nM, 39 nM or 52 nM). A control culture was also maintained under the same conditions albeit in the absence of kifunensine.
(§2) On culture day 18, samples were taken from the perfusion bioreactors and the percentage sialylation of the IgG1 antibodies was determined by glycan analysis. Briefly, antibodies were first purified using protein A chromatography, glycans were then enzymatically released from the antibody, fluorescently labelled with 2-aminobenzamide and analysed using hydrophilic interaction chromatography (HILIC) based methods.

Sp2/0 cells [2] = test: Cell viability of Sp2/0 perfusion cultures supplemented with kifunensine; format: cell-based, Murine; details: Sp2/0 perfusion cultures, 3, 6, 9 or 12 μg/L kifunensine (13, 26, 39 or 52 nM), 30 days
Experimental: as §1

CHO cells [3] = test: Fc-glycan sialylation of human IgG2 antibody (denosumab) produced in CHO cells in fed-batch culture supplemented with kifunensine; format: cell-based, Chinese hamster; details: IgG2 (denosumab) from CHO cells, day 20, FIG. 2
Experimental: as §2
(§3) CHO cells transfected with expression vectors encoding SEQ ID NOs: 3 and 4 (which correspond to the heavy and lights chains respectively of the human anti-RANKL IgG2 monoclonal antibody, denosumab) were cultured in bioreactors using standard fed-batch methods. To examine the effects of kifunensine on the Fc-glycan sialylation levels of the resulting IgG2, the cultures were supplemented with either 30, 40, 50 or 60 nM kifunensine on day 3 of the culture. A control culture was also maintained under the same conditions albeit in the absence of kifunensine.
On day 20, samples were taken from bioreactors and the percentage Fc-glycan sialylation of the IgG2 antibodies was determined as described in Example 1.

CHO cells [4] = test: Cell viability of CHO fed-batch cultures supplemented with kifunensine; format: cell-based, Chinese hamster; details: CHO fed-batch cultures, 30, 40, 50 or 60 nM kifunensine added on day 3
Experimental: as §3

CHO cells [5] = test: Glycosylation profile of recombinant human EPO produced in CHO cells in perfusion culture supplemented with kifunensine; format: cell-based, Chinese hamster; details: CHO perfusion culture 18 days, 12 μg/L kifunensine from day 0
Experimental: CHO cells transfected with expression vectors encoding recombinant human EPO (UniProt Accession No. P01588, Sequence Version 1, Entry Version 195) are cultured in perfusion bioreactors for 18 days under standard operating parameters. The culture medium is supplemented with 12 μg/L kifunensine from day 0.
Recombinant human EPO produced during the culture period is harvested throughout the production phase and at the end of the culture period, a sample is obtained to determine the glycosylation profile. The resultant recombinant human EPO has increased mannosylation and sialylation compared to that produced in cultures without kifunensine.

Structure (SMILES): O=C1N[C@@H]2[C@@H](O)[C@@H](O)[C@H](O)[C@@H](CO)N2C1=O [kifunensine, (5R,6R,7S,8R,8aS)-6,7,8-trihydroxy-5-(hydroxymethyl)-1,5,6,7,8,8a-hexahydroimidazo[1,2-a]pyridine-2,3-dione]
- kifunensine concentration giving peak sialylation levels (Sp2/0 cells [1]; culture day 18, FIG. 1): 12 µg/L
- kifunensine concentration at which an increase in sialylation compared to control was evident (Sp2/0 cells [1]; culture day 18, FIG. 1, particularly 9 and 12 μg/L): ≥ 6 µg/L
- kifunensine concentration giving peak sialylation levels (molar) (Sp2/0 cells [1]; culture day 18, conversion of 12 μg/L): ~52 nM
- impact on cell viability (Sp2/0 cells [2]): No significant impact on cell viability
- kifunensine concentration at which an increase in Fc-glycan sialylation compared to control was evident (CHO cells [3]): > 40 nM
- kifunensine concentration giving peak Fc-glycan sialylation (CHO cells [3]): 60 nM
- impact on cell viability (CHO cells [4]): No significant impact on cell viability
- mannosylation of recombinant human EPO compared to cultures without kifunensine (CHO cells [5]): increased
- sialylation of recombinant human EPO compared to cultures without kifunensine (CHO cells [5]): increased
